The IC50 is the concentration at which inhibition is half-maximal.

T1 sequence (P21554 whole entry): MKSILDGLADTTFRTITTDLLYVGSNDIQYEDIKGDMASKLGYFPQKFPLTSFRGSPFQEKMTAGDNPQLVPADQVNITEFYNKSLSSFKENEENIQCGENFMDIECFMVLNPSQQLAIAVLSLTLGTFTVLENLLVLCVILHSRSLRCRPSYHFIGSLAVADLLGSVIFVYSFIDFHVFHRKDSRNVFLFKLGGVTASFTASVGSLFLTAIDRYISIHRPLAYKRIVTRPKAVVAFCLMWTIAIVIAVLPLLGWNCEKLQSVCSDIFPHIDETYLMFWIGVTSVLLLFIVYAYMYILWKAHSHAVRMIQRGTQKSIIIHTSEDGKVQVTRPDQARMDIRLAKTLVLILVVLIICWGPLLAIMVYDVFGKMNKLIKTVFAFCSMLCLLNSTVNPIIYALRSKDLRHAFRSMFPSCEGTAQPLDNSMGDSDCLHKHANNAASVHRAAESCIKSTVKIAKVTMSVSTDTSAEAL

The experiment concerns the target T1, hCB1 (Homo sapiens, UniProt P21554).
T1 construct: made in house; host or cells: Sf9 insect cells (baculovirus), P2 membranes
As to the kind of experiment: Agonist-induced GTP binding (GTPγ35S) assay at CB1, Example 8. The format is biochemical. The note with it: Table II; IC50 at CB1, GTP binding with 1 nM CP55,940; read-out: IC50. In outline: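 Antagonism read as inhibition of 1 nM CP55,940-stimulated GTPγ35S ([…]) binding, compounds at 10^−10 to 10^−5 M. Baculovirus-infected Sf9 membranes bearing hCB1 plus G-protein subunits, 60 min room-temperature incubation with 5 μM GDP. Filtration and scintillation counting; data as percent over basal.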
As for `O=C(Nc1ccc(OC(F)F)cc1)Nc1ccc(Br)nc1` [Compound 114, N-(6-bromopyridin-3-yl)-N′-[4-(difluoromethoxy)phenyl]urea], the half-inhibitory concentration (IC50) is less than 2000 nM. In the case of `Cc1noc(C)c1-c1cccc(NC(=O)Nc2ccc(OC(F)F)cc2)c1` [Compound 115, N-[4-(difluoromethoxy)phenyl]-N′-[3-(3,5-dimethylisoxazol-4-yl)phenyl]urea], the IC50 is less than 2000 nM.

As to `Cc1n[nH]cc1-c1cccc(NC(=O)Nc2ccc(OC(F)F)cc2)c1` [Compound 116, N-[4-(difluoromethoxy)phenyl]-N′-[3-(3-methyl-1H-pyrazol-4-yl)phenyl]urea], the IC50 is less than 2000 nM. The value for `Cc1n[nH]c(C)c1-c1cccc(NC(=O)Nc2ccc(OC(F)F)cc2)c1` [Compound 117, N-[4-(difluoromethoxy)phenyl]-N′-[3-(3,5-dimethyl-1H-pyrazol-4-yl)phenyl]urea] was less than 2000 nM; that for `COc1nc(-c2cccc(NC(=O)Nc3ccc(OC(F)F)cc3)c2)ncc1C(F)(F)F` [Compound 118, N-[4-(difluoromethoxy)phenyl]-N′-{3-[4-methoxy-5-(trifluoromethyl)pyrimidin-2-yl]phenyl}urea] was less than 2000 nM; that for `COc1ncc(C(F)(F)F)c(-c2cccc(NC(=O)Nc3ccc(OC(F)F)cc3)c2)n1` [Compound 119, N-[4-(difluoromethoxy)phenyl]-N′-{3-[2-methoxy-5-(trifluoromethyl)pyrimidin-4-yl]phenyl}urea] was less than 2000 nM.

On to `Cc1cc(-c2cccc(NC(=O)Nc3ccc(OC(F)F)cc3)c2)cc(C)n1` [Compound 120, N-[4-(difluoromethoxy)phenyl]-N′-[3-(2,6-dimethylpyridin-4-yl)phenyl]urea], for which the half-maximal inhibitory concentration (IC50) was less than 2000 nM. The value for `COc1ccc(C(F)(F)F)c(-c2cccc(NC(=O)Nc3ccc(OC(F)F)cc3)c2)n1` [Compound 121, N-[4-(difluoromethoxy)phenyl]-N′-{3-[6-methoxy-3-(trifluoromethyl)pyridin-2-yl]phenyl}urea] was less than 2000 nM; that for `CCC(CC)Oc1ccc(-c2cccc(NC(=O)Nc3ccc(OC(F)F)cc3)c2)nc1NC` [Compound 122, N-[4-(difluoromethoxy)phenyl]-N′-{3-[5-(1-ethylpropoxy)-6-(methylamino)pyridin-2-yl]phenyl}urea] was less than 2000 nM; that for `COc1ccc(-c2cccc(NC(=O)Nc3ccc(OC(F)F)cc3)c2)nc1Cl` [Compound 123, N-[3-(6-chloro-5-methoxypyridin-2-yl)phenyl]-N′-[4-(difluoromethoxy)phenyl]urea] was less than 2000 nM. In the case of `CCc1cncc(-c2cccc(NC(=O)Nc3ccc(OC(F)F)cc3)c2)n1` [Compound 124, N-[4-(difluoromethoxy)phenyl]-N′-[3-(6-ethylpyrazin-2-yl)phenyl]urea], the half-maximal inhibitory concentration (IC50) is less than 2000 nM.

As to `CCc1ccc(NC(=O)Nc2cnc3ccccc3c2)cc1` [Compound 125, N-(4-ethylphenyl)-N′-quinolin-3-ylurea], the 50% inhibitory concentration (IC50) is less than 2000 nM. The same measure for `O=C(Nc1ccc(OC(F)F)cc1)Nc1cnc2ccccc2c1` [Compound 126, N-[4-(difluoromethoxy)phenyl]-N′-quinolin-3-ylurea]: less than 2000 nM; for `CCc1ccc(NC(=O)Nc2ccc3ncccc3c2)cc1` [Compound 128, N-(4-ethylphenyl)-N′-quinolin-6-ylurea]: less than 2000 nM; for `O=C(Nc1ccc(OC(F)F)cc1)Nc1ccc2ncccc2c1` [Compound 129, N-[4-(difluoromethoxy)phenyl]-N′-quinolin-6-ylurea]: less than 2000 nM. With `Cc1nc2ccc(NC(=O)Nc3ccc(OC(F)F)cc3)cc2o1` [Compound 130, N-[4-(difluoromethoxy)phenyl]-N′-(2-methyl-1,3-benzoxazol-6-yl)urea], the IC50 was less than 2000 nM. The value for `CCOc1ccc(NC(=O)Nc2ccc(OC(F)F)cc2)cc1` [Compound 131, N-[4-(difluoromethoxy)phenyl]-N′-(4-ethoxyphenyl)urea] was less than 2000 nM. The value for `COC(=O)c1ccc(NC(=O)Nc2ccc(OC(F)F)cc2)cc1` [Compound 132, methyl 4-[({[4-(difluoromethoxy)phenyl]amino}carbonyl)amino]benzoate] was less than 2000 nM.

Consider `O=C(Nc1ccc(OC(F)F)cc1)Nc1ccc2[nH]ncc2c1` [Compound 133], for which the IC50 was less than 2000 nM. The same measure for `COC(=O)c1ccc(NC(=O)Nc2ccc(OC(F)F)cc2)cc1OC` [Compound 134, methyl 4-[({[4-(difluoromethoxy)phenyl]amino}carbonyl)amino]-2-methoxybenzoate]: less than 2000 nM. The same measure for `O=C(Nc1ccc(OC(F)F)cc1)Nc1ccc2c(c1)OC(=O)C2` [Compound 135, N-[4-(difluoromethoxy)phenyl]-N′-(2-oxo-2,3-dihydro-1-benzofuran-6-yl)urea]: less than 2000 nM; for `Nc1ncc(Br)cc1NC(=O)Nc1ccc(OC(F)F)cc1` [Compound 136, N-(2-amino-5-bromopyridin-3-yl)-N′-[4-(difluoromethoxy)phenyl]urea]: less than 2000 nM; for `O=C(Nc1ccc(OC(F)F)cc1)Nc1cc(OC(F)F)ncn1` [Compound 137, N-[4-(difluoromethoxy)phenyl]-N′-[6-(difluoromethoxy)pyrimidin-4-yl]urea]: less than 2000 nM. Take `O=C(Nc1ccc(OC(F)F)cc1)Nc1cccc(-c2cocn2)c1` [Compound 138]: the IC50 is less than 2000 nM. The value for `N#Cc1cc(NC(=O)Nc2ccc(OC(F)F)cc2)ccc1F` [Compound 139, N-(3-cyano-4-fluorophenyl)-N′-[4-(difluoromethoxy)phenyl]urea] was less than 2000 nM; that for `O=C(Nc1ccc(OC(F)F)cc1)Nc1ccc(C(=O)c2ccccc2)cc1` [Compound 140, N-(4-benzoylphenyl)-N′-[4-(difluoromethoxy)phenyl]urea] was less than 2000 nM; that for `O=C(Nc1ccc(OC(F)F)cc1)Nc1cccc2cccc(Cl)c12` [Compound 141, N-(8-chloro-1-naphthyl)-N′-[4-(difluoromethoxy)phenyl]urea] was less than 2000 nM. In the case of `Cc1ccc2cc(NC(=O)Nc3ccc(OC(F)F)cc3)ccc2n1` [Compound 142, N-[4-(difluoromethoxy)phenyl]-N′-(2-methylquinolin-6-yl)urea], the IC50 was less than 2000 nM. Take `O=C(Nc1cccc(OC(F)F)c1)Nc1ccc(N2CCOCC2)c(Cl)c1` [Compound 143, N-(3-chloro-4-morpholin-4-ylphenyl)-N′-[3-(difluoromethoxy)phenyl]urea]: the concentration for half-maximal inhibition (IC50) was less than 2000 nM. For `CC(C)Oc1ccc(NC(=O)Nc2cccc(OC(F)F)c2)cc1` [Compound 144, N-[3-(difluoromethoxy)phenyl]-N′-(4-isopropoxyphenyl)urea], the IC50 was less than 2000 nM.

Take `O=C(Nc1cccc(OC(F)F)c1)Nc1cccc(OC(F)(F)F)c1` [Compound 145, N-{3-(difluoromethoxy)phenyl]-N′-[3-(trifluoromethoxy)phenyl]urea]: the IC50 was less than 2000 nM. The same measure for `Cc1noc(C)c1-c1cccc(NC(=O)Nc2cccc(OC(F)F)c2)c1` [Compound 146, N-[3-(difluoromethoxy)phenyl]-N′-[3-(3,5-dimethylisoxazol-4-yl)phenyl]urea]: less than 2000 nM; for `Cc1cc(-c2cccc(NC(=O)Nc3cccc(OC(F)F)c3)c2)cc(C)n1` [Compound 147]: less than 2000 nM.

These data come from patent US20090239841A1, “Diaryl Ureas as CB1 Antagonists” (priority 2004, published 2009).
